In the supplement of paper PMC10307832:

Legend:
Assay in all cases: relative viability (nuclei count vs DMSO), 5 days (fraction); higher = more cells survive
Etoposide + Linsitinib = compound: COc1cc([C@@H]2c3cc4c(cc3[C@@H](O[C@@H]3O[C@@H]5CO[C@@H](C)O[C@H]5[C@H](O)[C@H]3O)[C@H]3COC(=O)[C@H]23)OCO4)cc(OC)c1O [Etoposide] + C[C@]1(O)C[C@@H](c2nc(-c3ccc4ccc(-c5ccccc5)nc4c3)c3c(N)nccn32)C1 [Linsitinib] (partner 1 µM)
How it was run: (§1)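 Lung cancer cell lines, seeded in 1536-well plates, were treated the following day by pin tool with a single drug or with five library-drug doses (not always all listed) in √10 steps on top of a fixed anchor-drug dose. Cells were fixed and nuclei stained in one step after 5 days, and nuclei were counted. Relative viability is the nuclei count for treated wells divided by that for vehicle wells, reported as medians of duplicate plates.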

Bleomycin + Tozasertib = compound: CC1=C(N=C(N=C1N)[C@H](CC(=O)N)NC[C@@H](C(=O)N)N)C(=O)N[C@@H]([C@H](C2=CN=CN2)OC3C(C(C(C(O3)CO)O)O)OC4C(C(C(C(O4)CO)O)OC(=O)N)O)C(=O)N[C@H](C)[C@H]([C@H](C)C(=O)N[C@@H]([C@@H](C)O)C(=O)NCCC5=NC(=CS5)C6=NC(=CS6)C(=O)NCCC[S+](C)C)O [Bleomycin] + Cc1cc(Nc2cc(N3CCN(C)CC3)nc(Sc3ccc(NC(=O)C4CC4)cc3)n2)n[nH]1 [Tozasertib] (partner 0.1 µM); details: main component drawn
How it was run: as §1

Etoposide + Navitoclax = compound: COc1cc([C@@H]2c3cc4c(cc3[C@@H](O[C@@H]3O[C@@H]5CO[C@@H](C)O[C@H]5[C@H](O)[C@H]3O)[C@H]3COC(=O)[C@H]23)OCO4)cc(OC)c1O [Etoposide] + CC1(C)CCC(c2ccc(Cl)cc2)=C(CN2CCN(c3ccc(C(=O)NS(=O)(=O)c4ccc(N[C@H](CCN5CCOCC5)CSc5ccccc5)c(S(=O)(=O)C(F)(F)F)c4)cc3)CC2)C1 [Navitoclax] (partner 0.5 µM)
How it was run: as §1

Etoposide + Palbociclib = compound: COc1cc([C@@H]2c3cc4c(cc3[C@@H](O[C@@H]3O[C@@H]5CO[C@@H](C)O[C@H]5[C@H](O)[C@H]3O)[C@H]3COC(=O)[C@H]23)OCO4)cc(OC)c1O [Etoposide] + CC(=O)c1c(C)c2cnc(Nc3ccc(N4CCNCC4)cn3)nc2n(C2CCCC2)c1=O [Palbociclib] (partner 0.5 µM)
How it was run: as §1

Row | Cell Line | relative viability (Etoposide + Linsitinib; first compound 0.01 µM) | relative viability (Etoposide + Linsitinib; first compound 0.03162 µM) | relative viability (Etoposide + Linsitinib; first compound 0.1 µM) | relative viability (Etoposide + Linsitinib; first compound 0.3162 µM) | relative viability (Etoposide + Linsitinib; first compound 1 µM) | relative viability (Bleomycin + Tozasertib; first compound 0.01 µM) | relative viability (Bleomycin + Tozasertib; first compound 0.03162 µM) | relative viability (Bleomycin + Tozasertib; first compound 0.1 µM) | relative viability (Bleomycin + Tozasertib; first compound 0.3162 µM) | relative viability (Bleomycin + Tozasertib; first compound 1 µM) | relative viability (Etoposide + Navitoclax; first compound 0.01 µM) | relative viability (Etoposide + Navitoclax; first compound 0.03162 µM) | relative viability (Etoposide + Navitoclax; first compound 0.1 µM) | relative viability (Etoposide + Navitoclax; first compound 0.3162 µM) | relative viability (Etoposide + Navitoclax; first compound 1 µM) | relative viability (Etoposide + Palbociclib; first compound 0.01 µM) | relative viability (Etoposide + Palbociclib; first compound 0.03162 µM) | relative viability (Etoposide + Palbociclib; first compound 0.1 µM) | relative viability (Etoposide + Palbociclib; first compound 0.3162 µM) | relative viability (Etoposide + Palbociclib; first compound 1 µM)
1 | CAL-12T | 0.791 | 0.849 | 0.619 | 0.597 | 0.181 | 0.23 | 0.249 | 0.179 | 0.179 | 0.208 | 1.13 | 1.26 | 1.17 | 0.752 | 0.791 | 0.346 | 0.505 | 0.299 | 0.306 | 0.285
2 | HCC-44 | 0.61 | 0.745 | 0.729 | 0.535 | 0.267 | 0.273 | 0.312 | 0.302 | 0.19 | 0.137 | 0.845 | 1.05 | 1.1 | 0.882 | 0.496 | 0.99 | 0.94 | 1.02 | 0.947 | 0.701
3 | EKVX | 0.979 | 0.978 | 0.805 | 0.712 | 0.399 | 0.434 | 0.413 | 0.365 | 0.191 | 0.204 | 0.892 | 0.983 | 0.759 | 0.446 | 0.251 | 0.358 | 0.434 | 0.21 | 0.375 | 0.282
4 | NCI-H1651 | 0.885 | 0.922 | 0.864 | 0.331 | 0.134 | 0.529 | 0.455 | 0.303 | 0.156 | 0.105 | 0.866 | 0.881 | 0.808 | 0.242 | 0.154 | 0.512 | 0.515 | 0.414 | 0.359 | 0.178
5 | NCI-H1944 | 1.45 | 1.33 | 0.844 | 0.733 | 0.392 | 0.196 | 0.197 | 0.187 | 0.147 | 0.12 | 1.11 | 1 | 0.63 | 0.593 | 0.3 | 0.315 | 0.358 | 0.233 | 0.231 | 0.198
6 | A-427 | 1.17 | 1.16 | 0.815 | 0.841 | 0.243 | 0.201 | 0.168 | 0.223 | 0.126 | 0.159 | 0.963 | 0.937 | 0.525 | 0.53 | 0.256 | 0.51 | 0.479 | 0.486 | 0.378 | 0.282
7 | NCI-H2405 | 0.791 | 0.96 | 0.582 | 0.7 | 0.377 | 0.703 | 0.758 | 0.682 | 0.475 | 0.398 | 0.801 | 0.912 | 0.532 | 0.513 | 0.187 | 0.536 | 0.549 | 0.355 | 0.477 | 0.328
8 | NCI-H1355 | 0.732 | 0.945 | 0.466 | 0.585 | 0.334 | 0.511 | 0.596 | 0.478 | 0.255 | 0.224 | 0.881 | 1.17 | 0.479 | 0.684 | 0.323 | 0.423 | 0.473 | 0.275 | 0.355 | 0.281
9 | RERF-LC-KJ | 0.84 | 0.895 | 0.866 | 0.769 | 0.562 | 0.311 | 0.339 | 0.297 | 0.234 | 0.193 | 0.829 | 0.94 | 0.957 | 0.829 | 0.488 | 1.04 | 1.19 | 0.918 | 0.912 | 0.606
10 | NCI-H23 | 0.504 | 0.645 | 0.364 | 0.409 | 0.191 | 0.208 | 0.268 | 0.217 | 0.161 | 0.135 | 0.733 | 0.816 | 0.502 | 0.421 | 0.254 | 0.504 | 0.515 | 0.485 | 0.334 | 0.236
11 | HOP-62 | 0.963 | 1.05 | 0.657 | 0.631 | 0.269 | 0.229 | 0.208 | 0.194 | 0.144 | 0.102 | 1.07 | 0.995 | 0.987 | 0.598 | 0.236 | 0.408 | 0.478 | 0.464 | 0.356 | 0.273
12 | HARA | 0.892 | 1.15 | 1.04 | 0.738 | 0.182 | 0.0994 | 0.118 | 0.107 | 0.1 | 0.081 | 1.11 | 1.16 | 1.17 | 0.864 | 0.337 | 0.242 | 0.335 | 0.245 | 0.269 | 0.203
13 | PC-14 | 1.01 | 1.05 | 0.956 | 0.838 | 0.507 | 0.335 | 0.275 | 0.145 | 0.0771 | 0.05 | 0.984 | 1.05 | 1.19 | 0.906 | 0.652 | 0.447 | 0.594 | 0.652 | 0.289 | 0.125
14 | NCI-H1755 | 0.985 | 1.03 | 0.974 | 0.951 | 0.858 | 0.54 | 0.54 | 0.636 | 0.468 | 0.333 | 0.917 | 1.03 | 1.07 | 0.939 | 0.882 | 0.436 | 0.397 | 0.454 | 0.429 | 0.456
15 | HCC-78 | 0.436 | 0.525 | 0.255 | 0.322 | 0.181 | 0.335 | 0.356 | 0.357 | 0.269 | 0.355 | 0.728 | 0.798 | 0.341 | 0.313 | 0.158 | 0.403 | 0.522 | 0.534 | 0.402 | 0.378
